US10358469B2, “Methods and pharmaceutical compositions for the treatment of cancer” (INSERM (INSTITUT NATIONAL DE LA SANTÉ ET DE LA RECHERCHE …, priority 2014, dated 2019)

Columns and labels:
A549 cells = assay: Cell viability (MTT) of A549 cells under low serum / serum deprivation; format: cell-based
Experimental: (A) Karpas 1106, SU-DHL-5, SeAx and HUT-78 cells were plated at a densities of 6×10^3 in 96 well plates (100 μL total volume per well) and treated for 24 hours in a 37° C. incubator (5% CO2) with increasing concentrations of the Antp-AAC-11-LZ (363-399). 20 μL MTS reagent was then added to each well and plates were incubated for an additional 4 hours. Absorbance was measured at 490 nm using a 96-well plate reader. The extent to which the Antp-AAC-11-LZ (363-399) peptide inhibited cell proliferation was calculated as a percentage of the absorbance in each well containing the Antp-AAC-11-LZ (363-399) peptide relative to wells containing no peptide (negative control). Each bar represents the mean±s.d. from at least three independent experiments. (B) Indicated cells were plated at a densities of 4.5×10^3 in 96 well plates (100 μL total volume per well) and allowed to attach overnight in a 37° C. incubator (5% CO2). Media was removed from cells and replaced with media containing Antp-AAC-11-LZ (363-399) peptide at various concentrations (100 μL total volume per well) peptide and the plates were incubated for 24 hours. The MTT assay was then completed and data analysis was performed as described herein. […] A549 cells were plated at a densities of 4.5×10^3 in 96 well plates (100 μL total volume per well) and allowed to attach overnight in a 37° C. incubator (5% CO2). Media was removed from cells and replaced with media containing the indicated peptides at 10 μM (100 μL total volume per well) and the plates were incubated for 24 hours. The MTT assay was then completed and data analysis was performed as described herein.
(A) A549 cells were plated at a densities of 4.5×10^3 in 96 well plates (100 μL total volume per well) and allowed to attach overnight in a 37° C. incubator (5% CO2). Media was removed from cells and replaced with media containing the indicated peptides at various concentrations (100 μL total volume per well) peptide in the absence of serum and the plates were incubated for 24 hours. The MTT assay was then completed and data analysis was performed as described herein. (B) A549 or HaCat cells were plated at a densities of 4.5×10^3 in 96 well plates (100 μL total volume per well) and allowed to attach overnight in a 37° C. incubator (5% CO2). Media was removed from cells and replaced with media containing the indicated peptides at 10 μM (100 μL total volume per well) peptide in the absence of serum and the plates were incubated for 24 hours. The MTT assay was then completed and data analysis was performed as described herein.
A549 cells were plated at a densities of 4.5×10^3 in 96 well plates (100 μL total volume per well) and allowed to attach overnight in a 37° C. incubator (5% CO2). Cells were left untreated or pre-treated with 100 μM Z-VAD-FMK for 2 h. […] The MTT assay was then completed and data analysis was performed as described herein.
(A) A549 cells were plated at a densities of 4.5×10^3 in 96 well plates (100 μL total volume per well) and allowed to attach overnight in a 37° C. incubator (5% CO2). Media was removed from cells and replaced with media containing the indicated Antp-AAC-11-LZ peptides at various concentrations (100 μL total volume per well) peptide and the plates were incubated for 24 hours. The MTT assay was then completed and data analysis was performed as described herein. (B) A549 or HaCat cells were plated at a densities of 4.5×10^3 in 96 well plates (100 μL total volume per well) and allowed to attach overnight in a 37° C. incubator (5% CO2). Media was removed from cells and replaced with media containing the indicated peptides at 10 μM (100 μL total volume per well) peptide in the absence of serum and the plates were incubated for 24 hours. The MTT assay was then completed and data analysis was performed as described herein.

HaCat cells = assay: Propidium iodide (PI) uptake, flow cytometry, HaCat cells; format: cell-based; conditions: 10 μM, absence of 10% FBS, FIG. 4A
Experimental: FIG. 4: Antp-AAC-11-LZ (363-399) peptide induced necrotic cell death under low serum conditions. (A) SeAx or HaCat cells cultured in the absence of 10% FBS were left untreated or treated with 4 μM or 10 μM, respectively, of the Antp-AAC-11-LZ (363-399) peptide for the indicated durations. Cells were then analyzed by flow cytometry for PI staining. The results represent the mean number of PI-positive cells±S.D. from at least three independent experiments. (B) A549 and HaCat cells were plated at a densities of 4.5×10^3 in 96 well plates (100 μL total volume per well) and allowed to attach overnight in a 37° C. incubator (5% CO2). Media was removed from cells and replaced with media containing 10 μM Antp-AAC-11-LZ (363-399) peptide (100 μL total volume per well) peptide and the plates were incubated for the indicated durations. Lactate dehydrogenase (LDH) activity released in the culture medium was then assessed and data expressed as a percentage of the maximal level (Max) of LDH activity determined after total cell lysis±S.D. from at least three independent experiments.
Cell death was evaluated upon staining with propidium iodide and flow cytometry analysis.
We therefore evaluated necrotic cell death of SeAx cells treated with the Antp-AAC-11-LZ (363-399) peptide by PI uptake assay following different time exposures. […]

Ac-RQIKIWFKKQNRRMKWKKAKLNAEKLKDFKIRLQYFARGLQVYIRQLRLALQGKT-NH2 [Antp-AAC-11-LZ (363-399)]
cellular viability (A549 cells; 2 µM): 97 % of control
influence of cycloheximide on peptide induced-cytotoxicity (A549 cells; 10 μM cycloheximide, various peptide concentrations, data not shown): had no influence
induction of cell death of A549 cells (A549 cells; 10 μM, serum deprivation, 24 hours, FIG. 1C): induced cell death
effect of pan-caspase inhibitor Z-VAD-FMK on induced cytotoxicity / cell death (A549 cells; 100 μM Z-VAD-FMK, 2 h pre-treatment, 24 hours, cisplatin 50 μM, FIG. 3): did not rescue, but somehow increased
loss of cell membrane integrity (PI uptake) in nonmalignant cells (HaCat cells): much decreased loss of cell membrane integrity
